In patent US20240173317A1, “METHODS FOR TREATING PROGRESSIVE FAMILIAL INTRAHEPATIC CHOLESTASIS” (MIRUM PHARMACEUTICALS, INC., priority 2022, published 2024):
Where two headings read alike, the source gives them in different places.

Legend:
subjects with PFIC [1] = experiment: Total and direct bilirubin, MARCH-PFIC Phase 3 study
Description: Estimates are from a mixed model for repeated measures (MMRM) with change from baseline as the dependent variable and fixed categorical effects of treatment group, time period and treatment-by-time period interaction as well as the continuous fixed covariates of average baseline score and baseline score-by-time period interaction. […] Average of time periods Weeks 15-18, 19-22, and 2326 obtained from the MMRM as an equally weighted average of the 3 individual visit-specific estimates.
Methods: MARCH enrolled patients with a genetic diagnosis of PFIC, pruritus, and elevated sBA. Patients were randomized to MRX 57011 g/kg BID or placebo (PBO) for 26 weeks. Changes were determined as the difference between MRX and PBO groups for Change from Baseline (CFB) to the average of the final 3 measurements (Weeks 18, 22 and 26) using a mixed-effects model with recurrent measurements. Total/direct bilirubin (TB/DB) categories were defined as normal (≤1.2/0.3 mg/dL) or abnormal (>1.2/0.3 mg/dL).

[2] = test system: patients with a truncated BSEP (t-BSEP) deficiency; experiment: sBA in individual t-BSEP patients (week 26 and week 58 of treatment); assay type: in vivo, human
subjects with PFIC [3] = experiment: EDQ(Obs) sleep disturbance score, MARCH-PFIC Phase 3 study; assay type: in vivo, human; conditions: All-PFIC; FIG. 27D
Description: The terms “EDQ(Obs)”, “EDQ(Pt)”, and “EDQ” as used herein, refer to Exploratory Diary Questionnaire that are used to assess pruritus in children under the age of 18 or adults of at least 18 years of age. EDQ is a caregiver/patient reported outcome measure administered as a twice daily electronic diary. EDQ contained a question about sleep related to pruritus: “because of itch, my child had trouble staying asleep. 1—Never, 2—Rarely, 3—ometimes, 4—Often, or 5—Almost Always.” Caregivers for all subjects aged <9 years completed the Observer instrument: EDQ(Obs). Subjects ≥9 years of age completed the patient instrument: EDQ(Pt). EDQ includes questions on sleep disturbances related to pruritus.
Exploratory Diary Questionnaire. Pruritus was assessed using the EDQ caregiver/patient reported outcome measure administered as a twice daily electronic diary. […] Pruritus was assessed and recorded twice daily by subjects or caregivers, via EDQ, beginning with the day after the screening visit and every day throughout the duration of the study, as described in Table 2.
Methods: Participants were randomized to receive MRX 570 μg/kg BID or placebo (PBO) (FIG. 27A). The primary analysis evaluated pruritus as assessed by the caregiver using ItchRO(Obs) 0-4 scale; as well as by physician using the Clinician Scratch Scale (CSS). Sleep was assessed using the Exploratory Diary Questionnaire (Observer) (EDQ[Obs]). […]

participants with ALGS = experiment: sBA in participants with ALGS aged 16 years and older; assay type: in vivo, human
Protocol: All patients received the daily dose appropriate for their weight, with an adult maximum dose of 28.5 mg/d. ^bBefore age 16 years is defined as the last data point prior to turning 16 years of age. After age 16 years is defined as the first data point after turning 16 years of age.
FIGS. 31A and 31B show a change in ltchRO(Obs) (FIG. 31A) and sBA (FIG. 31B) for participants who initiated MRX treatment at <16 years of age (n=11). Of 11 participants, 9 had ItchRO(Obs) scores available for all time points and were included in the analysis. ^bItchRO(Obs) is a 0-4 scale with >1-point reduction considered clinically meaningful. Mean ItchRO(Obs) was rounded to 1 decimal place. Error bars represent SE. Significance was determined using student t test. ^cMean sBA was rounded to the nearest whole number. Error bars represent SE. ^dAverage of last 2 records prior to age 16 years. ^eAverage of first 2 records after age 16 years. ^fAverage of final 2 records.
FIGS. 32A and 32B show a change in ltchRO(Obs) (FIG. 32A) and sBA (FIG. 32B) for participants who Initiated MRX treatment at ≥16 years of age (n=3). ^aItchRO(Obs) is 0-4 scale with ≥1-point reduction considered clinically meaningful. ^bAverage of final two records.
The efficacy and safety of MRX in participants with ALGS aged ≥16 years transitioning to adult care and participant aged ≥16 years who initiate MRX treatment were studied (FIG. 30). […]

[4] = test system: participants with PFIC 1 or PFIC 2; conditions: cited from earlier work
subjects with PFIC [5] = experiment: Clinical laboratory evaluations (ALT/transaminases, INR, vitamins A, D, E), MARCH-PFIC Phase 3 study; assay type: in vivo, human
Description: Clinical Laboratory Evaluations.
For subjects with a confirmed increase in ALT or TSB level, meeting the close monitoring criteria, the following investigations were considered, as clinically indicated: 1) Close and frequent monitoring of liver enzyme and serum bilirubin tests as clinically indicated; 2) Symptoms as well as prior, current, and intercurrent diseases/illnesses; 3) Use of or recent change in use of concomitant treatment (including non-prescription medications, herbal and dietary supplement preparations), alcohol use, recreational drug use, and special diets; 4) History for exposure to environmental chemical agents and travel; 5) Serology for viral hepatitis (HAV IgM, HBsAg, HCV antibody, HCVRNA, CMV IgM, and EBV antibody panel); 6) Serology for autoimmune hepatitis (e.g., antinuclear antibody [ANA]); 7) AST, creatine phosphokinase (CPK), and lactate dehydrogenase (LDH); 8) CBC with differential blood count (eosinophils); 9) Reticulocyte count, PT/INR.

[6] = BSEP deficiency cohort, FIG. 20A
[7] = BSEP deficiency cohort, FIG. 22A
[8] = MRX group, post-hoc analysis, FIG. 38A-B
[9] = individuals with abnormal Baseline bilirubin, FIG. 37B

CCCCC1(CCCC)CS(=O)(=O)c2ccc(N(C)C)cc2[C@@H](c2ccc(OCc3ccc(C[N+]45CCN(CC4)CC5)cc3)cc2)[C@H]1O [maralixibat, 1-(4-((4-((4R,5R)-3,3-dibutyl-7-(dimethylamino)-4-hydroxy-1,1-dioxido-2,3,4,5-tetrahydrobenzo[b]thiepin-5-yl)phenoxy)methyl)benzyl)-1,4-diazabicyclo[2.2.2]octan-1-ium]
CFB in total bilirubin (TB) (subjects with PFIC [1]; All-PFIC cohort (MRX n = 33), average of Weeks 18, 22 and 26, FIG. 36A): -1.1 mg/dL
CFB in direct bilirubin (DB) (subjects with PFIC [1]; All-PFIC cohort (MRX n = 33), average of Weeks 18, 22 and 26, FIG. 36B): -0.8 mg/dL
TB group difference MRX vs PBO (subjects with PFIC [1]; All-PFIC cohort, average of Weeks 18, 22 and 26, FIG. 36A): 2.0
DB group difference MRX vs PBO (subjects with PFIC [1]; All-PFIC cohort, average of Weeks 18, 22 and 26, FIG. 36B): 1.5
difference in total bilirubin improvement vs placebo group (subjects with PFIC [1]; [6]): 1.585 mg/dL
improvement in (reduction of) total bilirubin relative to baseline (subjects with PFIC [1]; [6]): about 1.2 mg/dL
difference in direct bilirubin improvement vs placebo group (subjects with PFIC [1]; [7]): 1.196 mg/dL
improvement in (reduction of) direct bilirubin relative to baseline (subjects with PFIC [1]; [7]): over 0.8 mg/dL
TB normalized, patients / patients with abnormal Baseline values (subjects with PFIC [1]; [8]): 10/25
patients who went from normal to abnormal TB (subjects with PFIC [1]; [8]): 0/7
DB frequency of normalization (subjects with PFIC [1]; MRX group, post-hoc analysis, normal ≤0.3 mg/dL, FIG. 39): 38%
TB normalized, % of patients with abnormal Baseline values (subjects with PFIC [1]; MRX group, post-hoc analysis, normal ≤1.2 mg/dL, FIG. 38A-B): 40%
difference in total bilirubin improvement vs placebo group (subjects with PFIC [1]; PFIC cohort, FIG. 20B): 2.000 mg/dL
improvement in (reduction of) total bilirubin relative to baseline (subjects with PFIC [1]; PFIC cohort, FIG. 20B): about 1.2 mg/dL
difference in direct bilirubin improvement vs placebo group (subjects with PFIC [1]; PFIC cohort, FIG. 22B): 1.608 mg/dL
improvement in (reduction of) direct bilirubin relative to baseline (subjects with PFIC [1]; PFIC cohort, FIG. 22B): about 0.9 mg/dL
total bilirubin lower than baseline over time (subjects with PFIC [1]; Week 18 and later points in time, FIG. 21A-B): at least 1.0 mg/dL
direct bilirubin lower than baseline over time (subjects with PFIC [1]; Week 18 and later points in time, FIG. 23A-B): at least 1.0 mg/dL
CFB in direct bilirubin (DB) (subjects with PFIC [1]; [9]): -0.8 mg/dL
DB group difference MRX vs PBO (subjects with PFIC [1]; [9]): −1.8
sBA change in individual t-BSEP patients ([2]; Baseline to Week 26, FIG. 42D): reductions from Baseline to Week 26 in sBA
sBA reduction in individual t-BSEP patients ([2]; all patients receiving maralixibat (MRX-MRX) or switching from placebo (PBO-MRX), Table 15): meaningful sBA reduction
CFB in sleep (EDQ(Obs)), difference MRX vs PBO, delta [95% CI] (subjects with PFIC [3]): significant improvements
improvements in sBA (participants with ALGS; MRX during childhood, maintained into early adulthood, FIG. 31B): significant improvements
improvements in sBA (participants with ALGS; participants receiving MRX in early adulthood, FIG. 32B): significant improvements
response in Indigo Phase 2 study ([4]; participants with PFIC 2): had a response
response in Indigo Phase 2 study ([4]; patients with PFIC 1): did not have a response
changes in serum ALT (subjects with PFIC [5]; All-PFIC Cohort, FIG. 26A-B): No significant changes
changes from baseline in transaminase levels (subjects with PFIC [5]; MARCH, either group): no clinically meaningful changes
changes from baseline in serum levels of vitamins A, D, and E (subjects with PFIC [5]; MARCH, under regular FSV supplementation): No clinically meaningful changes
International normalized ratio (INR), mean change from Baseline (subjects with PFIC [5]; MARCH, week 26): −0.3
